Assay results taken from patent US8178135B2, “Aqueous solution of conophylline and/or conophyllidine” (Keio University, priority 2006, dated 2012).

Columns and labels:
[1] = Dissolution of dried ethanol extract in citric acid / citrate buffer at pH 2.6 to 6.0 (HPLC); type: physicochemical
Procedure: Conophylline and conophyllidine were analyzed by reversed phase HPLC in a high pressure gradient mode using a YMC-Pack Pro C18 RS column (4.6 mm×250 mm; manufactured by YMC Co., Ltd.). The mobile phase consisted of 1% by volume acetic acid as solvent A and acetonitrile as solvent B. The gradient program was set to start with 10% B at a flow rate of 1 ml/min, and the portion of B was increased linearly to 55% over 25 min. The column temperature was 40° C. and UV absorption was monitored at the wavelength of 335 nm. The reference solutions of conophylline and conophyllidine were prepared immediately before measurement and their concentrations were calculated from the absorbance at 335 nm of the solutions prepared.
After some of the dried leaves obtained in Example 1 were pulverized in a mill, 10 g of the pulverized product was extracted with 100 ml of 60% ethanol. Then, the extract was centrifuged and supernatant containing conophylline and conophyllidine was recovered. […] The supernatant was dispensed in 3 ml aliquots into 5 centrifuge tubes and then concentrated to dryness by centrifugation. A buffer (citric acid aqueous solution or sodium citrate buffer) at pH 2.6 to pH 6.0 prepared by appropriately mixing 0.1 M citric acid solution and 0.1 M sodium citrate solution was added at 0.1 ml per tube. After 10 min vigorous stirring, the supernatant was centrifugated again and diluted 10-fold with 50% ethanol. After the dilution, insoluble matter was removed by filtration with a 0.2-μm membrane filter and the contents of conophylline and conophyllidine in the filtrated supernatant were measured by HPLC (Table 2).

[2] = Blood concentrations after oral administration of acetic acid extract or dried pulverized leaves to healthy rats; type: in vivo, rat
Procedure: Dried leaves of Tabernaemontana divaricata were pulverized with a home mill, 1 g of the pulverized product was homogenized in 20 ml of 0.3 M acetic acid solution, and the active ingredient was extracted by stirring at 50° C. for 30 min. The supernatant was recovered by centrifugation and concentrated to dryness to obtain 0.3 g of powder (acetic acid extract). This powder contained conophylline and conophyllidine at 1.0 mg/g and 0.8 mg/g, respectively.
Further, 1 g of pulverized leaves was homogenized in 20 ml of distilled water and then concentrated to dryness to obtain 1 g of product (dried pulverized leaves). The amounts of the active ingredients of conophylline and conophyllidine were 0.40 mg/g and 0.35 mg/g, respectively.
Next, 0.2 g of the acetic acid extract and 0.5 g of the dried pulverized leaves were separately suspended in 5 ml of water for injection. These suspensions were administered to 5-week old healthy rats (Crj:CD (SD) IGS, SPF, male) using a sonde by forced oral administration at a dose of 5 ml/kg body weight (n=2 per suspension). Blood was taken from the orbital venous plexus of each rat before oral administration, 1.5, 3, 6, 12, and 24 hours post administration and serum was recovered by centrifugation. The concentrations of conophylline and conophyllidine in the blood were measured by precipitating protein by addition of 2 volumes of acetonitrile to the serum followed by HPLC analysis of the supernatant (Table 6).

[3] = Concentration dissolved after neutralization with pectin or sodium polyacrylate (ethanol crude extract); type: physicochemical; conditions: for concentration in solution: Control: filled up only with distilled water, not neutralized
Procedure: Crude extract (250 mg) obtained in Example 1 was dissolved in 5 ml of 0.1 N hydrochloric acid. Then, after insoluble matter was removed by centrifugation (1,500×g, 5 min), the solution was dispensed in 0.5 ml aliquots into test tubes. Then, 10 μl or 100 μl of a 0.2% aqueous solution of pectin (Genue pectin type YM-150-LJ) or 0.2% aqueous solution of sodium polyacrylate (degrees of polymerization=30,000 to 40,000, manufactured by Wako Pure Chemical Industries, Ltd.) was added and filled up to a total volume of 2 ml with distilled water. Meanwhile, only distilled water was added to some of the test tubes in a total volume of […] (without an additive).
Subsequently, the solution, after being adjusted to pH 6.0 with sodium carbonate aqueous solution, was filled up to a total volume of 2 ml and was centrifuged at 5,000×g for 10 min. The supernatant was recovered and the concentrations of conophylline and conophyllidine were measured. Meanwhile, the concentrations of conophylline and conophyllidine in the solutions, which was made by filled up to a total volume of 2.5 ml only with distilled water, were also measured as the control.

[4] = Concentration dissolved after neutralization with pectin or sodium polyacrylate (partially purified by reversed phase column); type: physicochemical; conditions: for concentration in solution: Control: not neutralized
Procedure: Crude extract I (250 mg) obtained in Example 1 was dissolved in 5 ml of ethanol. Water was added to this solution in a total volume of 50 ml, which was passed through a glass column packed with about 5 ml of ODS resin (DM1020T, manufactured by Fuji Silysia Chemical Ltd.). After unadsorbed matter was removed by washing the column with 10 ml of distilled water, the adsorbed component was eluted with 10 ml of ethanol. Then, after the solvent was removed by centrifugal concentration, the concentrate was dissolved in 5 ml of 0.1 N hydrochloric acid and the solution was dispensed in 0.5 ml aliquots into test tubes. Then, 10 μl, 100 μl, or 1000 μl of a 0.2% aqueous solution of pectin or 0.2% aqueous solution of sodium polyacrylate was added to the aliquots. The solutions were treated in the same way as in Example 11 and the concentrations of conophylline and conophyllidine in the supernatants were measured.

pancreatic β cells = conditions: cited from earlier work
[5] = pH 6.0, Sodium polyacrylate 10 μg/ml
[6] = pH 6.0, Sodium polyacrylate 100 μg/ml

CC[C@@]12CC(C(=O)OC)=C3Nc4cc5c(cc4[C@@]34CCN(C[C@H]3O[C@H]31)[C@@H]24)[C@@H]1[C@H](O5)[C@@H](O)[C@@]2(CC)CC(C(=O)OC)=C3Nc4c(cc(O)c(OC)c4OC)[C@@]34CCN1[C@@H]24 [Conophylline, conophylline]
content dissolved in supernatant ([1]; Citrate buffer solution, pH 3): 0.866 mg/mL
content dissolved in supernatant ([1]; Citrate buffer solution, pH 4): 0.093 mg/mL
content dissolved in supernatant ([1]; Citrate buffer solution, pH 5): 0.0018 mg/mL
content dissolved in supernatant ([1]; Citrate buffer solution, pH 6): 0.0009 mg/mL
content dissolved in supernatant ([1]; Citric acid, pH 2.6): 1.072 mg/mL
time at which blood concentration reached its maximum ([2]; male, Crj:CD (SD) IGS, rat, in vivo, po): 1.5 h
concentration in solution [3]: 8.42 µg/mL
concentration in supernatant after neutralization ([3]; pH 6.0, Pectin 10 μg/ml): 1.74 µg/mL
concentration in supernatant after neutralization ([3]; pH 6.0, Pectin 100 μg/ml): 3.83 µg/mL
concentration in supernatant after neutralization [3, 5]: 1.87 µg/mL
concentration in supernatant after neutralization [3, 6]: 4.85 µg/mL
concentration in supernatant after neutralization ([3]; pH 6.0, additive None): 2.52 µg/mL
concentration in solution [4]: 11.28 µg/mL
concentration in supernatant after neutralization ([4]; pH 6.0, Pectin 10 μg/ml): 0.27 µg/mL
concentration in supernatant after neutralization ([4]; pH 6.0, Pectin 100 μg/ml): 0.55 µg/mL
concentration in supernatant after neutralization ([4]; pH 6.0, Pectin 1000 μg/ml): 2.59 µg/mL
concentration in supernatant after neutralization [4, 5]: 0.24 µg/mL
concentration in supernatant after neutralization [4, 6]: 5.15 µg/mL
concentration in supernatant after neutralization ([4]; pH 6.0, additive None): 0.19 µg/mL
regeneration of pancreatic β cells (pancreatic β cells): activate regeneration of pancreatic β cells

CC[C@@]12C=CCN3CC[C@]4(C(=C(C(=O)OC)C1)Nc1cc5c(cc14)[C@H]1[C@@H](O5)[C@H](O)[C@]4(CC)CC(C(=O)OC)=C5Nc6c(cc(O)c(OC)c6OC)[C@@]56CCN1[C@H]46)[C@H]32 (stereo in doubt) [Conophyllidine, conophyllidine]
content dissolved in supernatant ([1]; Citrate buffer solution, pH 3): 0.612 mg/mL
content dissolved in supernatant ([1]; Citrate buffer solution, pH 4): 0.055 mg/mL
content dissolved in supernatant ([1]; Citrate buffer solution, pH 5): 0.0017 mg/mL
content dissolved in supernatant ([1]; Citrate buffer solution, pH 6): 0.0010 mg/mL
content dissolved in supernatant ([1]; Citric acid, pH 2.6): 0.786 mg/mL
blood concentration ([2]; Dried pulverized leaves oral, healthy rats (animals 3, 4), 6 h): 0.054 µg/mL
blood concentration ([2]; Dried pulverized leaves oral, healthy rats (animals 3, 4), 12 h): 0.013 µg/mL
blood concentration ([2]; Dried pulverized leaves oral, healthy rats (animals 3, 4), 24 h): 0.002 µg/mL
time at which blood concentration reached its maximum ([2]; acetic acid extract oral, rats): 1.5 h
concentration at 6 h ([2]; male, Crj:CD (SD) IGS, rat, in vivo, po, 0.5 g/kg, Dried pulverized leaves oral, healthy rats (animals 3, 4), 6 h): 28 ng/mL
concentration at 12 h ([2]; male, Crj:CD (SD) IGS, rat, in vivo, po, 0.5 g/kg, Dried pulverized leaves oral, healthy rats (animals 3, 4), 12 h): 8 ng/mL
concentration at 24 h ([2]; male, Crj:CD (SD) IGS, rat, in vivo, po, 0.5 g/kg, Dried pulverized leaves oral, healthy rats (animals 3, 4), 24 h): 1 ng/mL
concentration in solution [3]: 11.83 µg/mL
concentration in supernatant after neutralization ([3]; pH 6.0, Pectin 10 μg/ml): 2.42 µg/mL
concentration in supernatant after neutralization ([3]; pH 6.0, Pectin 100 μg/ml): 5.19 µg/mL
concentration in supernatant after neutralization [3, 5]: 2.50 µg/mL
concentration in supernatant after neutralization [3, 6]: 8.45 µg/mL
concentration in supernatant after neutralization ([3]; pH 6.0, additive None): 3.27 µg/mL
concentration in solution [4]: 16.08 µg/mL
concentration in supernatant after neutralization ([4]; pH 6.0, Pectin 10 μg/ml): 0.13 µg/mL
concentration in supernatant after neutralization ([4]; pH 6.0, Pectin 100 μg/ml): 0.57 µg/mL
concentration in supernatant after neutralization ([4]; pH 6.0, Pectin 1000 μg/ml): 2.74 µg/mL
concentration in supernatant after neutralization [4, 5]: 0.17 µg/mL
concentration in supernatant after neutralization [4, 6]: 6.99 µg/mL
concentration in supernatant after neutralization ([4]; pH 6.0, additive None): 0.16 µg/mL
regeneration of pancreatic β cells (pancreatic β cells): activate regeneration of pancreatic β cells
